Test results taken from PubChem BioAssay AID248 (DTP/NCI, 2004).
Where “and” joins values, the source holds several entries; their conditions need not be identical. Identical values can stand only once. Inconclusive results and toxic doses are left out. Cut-off read from the data, not from the text of the source: active = T/C of 150% or more; inactive = T/C below 125%.

Test system: L1210 leukemia ip in BDF1 mice, survival T/C
Assay: NCI In Vivo Anticancer Drug Screen. Data for tumor model L1210 Leukemia (intraperitoneal) in B6D2F1 (BDF1) mice
Settings: endpoint: mean survival time, higher = longer survival
Method in brief: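 Survival endpoint. Drug-treated group vs vehicle group, expressed as T divided by C. Tumor passaged by transplantation.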

[1] = dose: 100.0 mg/kg/injection, schedule: Q01DX001 (ip), vehicle: saline
[2] = dose: 200.0 mg/kg/injection, schedule: Q01DX001 (ip), vehicle: saline
[3] = dose: 400.0 mg/kg/injection, schedule: Q01DX001 (ip), vehicle: saline
[4] = dose: 100.0 mg/kg/injection, schedule: Q01DX009 (ip), vehicle: Klucel (hydroxypropylcellulose) (HPC)
[5] = dose: 100.0 mg/kg/injection, schedule: Q04DX003 (ip), vehicle: Klucel (hydroxypropylcellulose) (HPC)
[6] = dose: 200.0 mg/kg/injection, schedule: Q01DX009 (ip), vehicle: Klucel (hydroxypropylcellulose) (HPC)
[7] = dose: 200.0 mg/kg/injection, schedule: Q04DX003 (ip), vehicle: Klucel (hydroxypropylcellulose) (HPC)
[8] = dose: 100.0 mg/kg/injection, schedule: Q04DX003 (ip), vehicle: saline with Tween-80
[9] = dose: 200.0 mg/kg/injection, schedule: Q04DX003 (ip), vehicle: saline with Tween-80

Measured: T/C

CC(Oc1ccccc1)C(=O)NC(=S)Nc1cc(C(F)(F)F)ccc1Cl (stereo unspecified)
inactive: dose: 50.0 mg/kg/injection, schedule: Q01DX009 (ip), vehicle: other 101 % of control and 103 % of control | dose: 100.0 mg/kg/injection, schedule: Q01DX001 (ip), vehicle: other 105 % of control | dose: 100.0 mg/kg/injection, schedule: Q01DX009 (ip), vehicle: other 100 % of control and 92 % of control | dose: 100.0 mg/kg/injection, schedule: Q04DX002 (ip), vehicle: other 97 % of control and 110 % of control | dose: 200.0 mg/kg/injection, schedule: Q01DX001 (ip), vehicle: other 100 % of control | dose: 200.0 mg/kg/injection, schedule: Q01DX009 (ip), vehicle: other 95 % of control and 92 % of control | dose: 200.0 mg/kg/injection, schedule: Q04DX002 (ip), vehicle: other 98 % of control and 106 % of control | dose: 400.0 mg/kg/injection, schedule: Q01DX001 (ip), vehicle: other 94 % of control | dose: 400.0 mg/kg/injection, schedule: Q01DX009 (ip), vehicle: other 87 % of control | dose: 400.0 mg/kg/injection, schedule: Q04DX002 (ip), vehicle: other 97 % of control and 116 % of control

CCCCSC(C)(C)CC
inactive: dose: 50.0 mg/kg/injection, schedule: Q01DX001 (ip), vehicle: saline 98 % of control | [1] 93 % of control | [2] 107 % of control | [3] 104 % of control

Cc1cccc2nc(-c3ccccc3)ccc12
inactive: dose: 6.0 mg/kg/injection, schedule: Q01DX009 (ip), vehicle: other 100 % of control | dose: 12.0 mg/kg/injection, schedule: Q01DX009 (ip), vehicle: other 92 % of control | dose: 12.0 mg/kg/injection, schedule: Q04DX003 (ip), vehicle: saline 92 % of control | dose: 25.0 mg/kg/injection, schedule: Q01DX009 (ip), vehicle: other 94 % of control | dose: 25.0 mg/kg/injection, schedule: Q04DX003 (ip), vehicle: saline 98 % of control

CC1CCC2(C)CCC3(C)C(=CCC4C5(C)CCC(OC(=O)c6ccccc6)C(C)(C)C5CCC43C)C2C1C (stereo unspecified)
inactive: dose: 100.0 mg/kg/injection, schedule: Q01DX001 (ip), vehicle: saline with Tween-80 96 % of control | dose: 200.0 mg/kg/injection, schedule: Q01DX001 (ip), vehicle: saline with Tween-80 102 % of control

COc1ccc(OC)c(COC(=O)c2ccccc2)c1COC(=O)c1ccccc1
inactive: dose: 100.0 mg/kg/injection, schedule: Q01DX001 (ip), vehicle: carboxymethylcellulose (CMC) 95 % of control | dose: 200.0 mg/kg/injection, schedule: Q01DX001 (ip), vehicle: carboxymethylcellulose (CMC) 101 % of control | dose: 400.0 mg/kg/injection, schedule: Q01DX001 (ip), vehicle: carboxymethylcellulose (CMC) 95 % of control

Cc1ccc(NC(=O)Nc2ccc(Cl)c(Cl)c2)c(C)c1
inactive: [4] 90 % of control | [5] 89 % of control | [6] 90 % of control | [7] 89 % of control | dose: 400.0 mg/kg/injection, schedule: Q04DX003 (ip), vehicle: Klucel (hydroxypropylcellulose) (HPC) 89 % of control

O=C(O)/C=C(\F)C(=O)O
inactive: dose: 50.0 mg/kg/injection, schedule: Q01DX005 (ip), vehicle: water 109 % of control and 91 % of control | dose: 100.0 mg/kg/injection, schedule: Q01DX005 (ip), vehicle: water 96 % of control and 98 % of control | dose: 200.0 mg/kg/injection, schedule: Q01DX005 (ip), vehicle: water 107 % of control and 105 % of control

CCCCNC(c1ccccc1)C(Cl)c1ccccc1 (stereo unspecified)
inactive: [5] 97 % of control | [7] 97 % of control

CC(=O)Oc1cc(OC(C)=O)c(Oc2cc(OC(C)=O)c(Oc3cc(OC(C)=O)c(OC(C)=O)c(OC(C)=O)c3)c(OC(C)=O)c2)c(OC(C)=O)c1
inactive: dose: 50.0 mg/kg/injection, schedule: Q04DX003 (ip), vehicle: saline with Tween-80 97 % of control | [8] 95 % of control | [9] 95 % of control

COc1cc(NCC(O)C(O)C(O)CO)c([N+](=O)[O-])cc1OC (stereo unspecified)
inactive: [1] 92 % of control | [2] 99 % of control | [3] 100 % of control

O=C(O)/C=C/C(=O)NCCc1ccccc1
inactive: [4] 91 % of control | [6] 102 % of control | dose: 400.0 mg/kg/injection, schedule: Q01DX009 (ip), vehicle: Klucel (hydroxypropylcellulose) (HPC) 96 % of control

O=C(CCNC(=O)OCc1ccccc1)NCC(=O)OCc1ccccc1
inactive: [8] 103 % of control | [9] 97 % of control | dose: 400.0 mg/kg/injection, schedule: Q04DX003 (ip), vehicle: saline with Tween-80 92 % of control
